Test results from ChEMBL document CHEMBL3822372, “The development of peptide ligands that target helix 69 rRNA of bacterial ribosomes” (Bioorg Med Chem, 2016).
Active and inactive are the calls of the source. The calls are words filed in the database; no cut-off is given here.

Legend:
[1] = Binding affinity to MS2-tagged 50s rRNA A-site in Escherichia coli BL21(DE3) by single molecule FRET assay
[2] = Binding affinity to pseudouridylated H69 50s rRNA (unknown origin) by ESI-MS analysis; conditions: for Kd: read-out: Kd(app)
[3] = Binding affinity to uridylated H69 50s rRNA (unknown origin) by ESI-MS analysis; conditions: for Kd: read-out: Kd(app)
[4] = Binding affinity to pseudouridylated H69 50s rRNA (unknown origin) at 2:1 peptide:RNA ratio by ESI-MS analysis
[5] = Binding affinity to uridylated H69 50s rRNA (unknown origin) at 2:1 peptide:RNA ratio by ESI-MS analysis; conditions: read-out: Kd(app)
[6] = Binding affinity to pseudouridylated H69 50s rRNA (unknown origin) at 1:1 peptide:RNA ratio by ESI-MS analysis
[7] = Selectivity ratio for uridylated H69 50s rRNA (unknown origin) to pseudouridylated H69 50s rRNA (unknown origin)
[8] = Binding affinity to 5'-biotin labeled pseudouridylated H69 50s rRNA (unknown origin) at 2:1 peptide:RNA ratio by ESI-MS analysis; conditions: read-out: Kd(app)
[9] = Binding affinity to 5'-biotin labeled uridylated H69 50s rRNA (unknown origin) by ESI-MS analysis
[10] = Binding affinity to pseudouridylated H69 50s rRNA (unknown origin) at 20 uM by ESI-MS analysis
[11] = Binding affinity to 5'-biotin labeled pseudouridylated H69 50s rRNA (unknown origin) by ESI-MS analysis; conditions: read-out: Kd(app)

Row | Molecule | Kd [2] | Kd [3] | other results
1 | COc1ccc(C[C@H](N)C(=O)N[C@H]2[C@@H](O)[C@H](n3cnc4c(N(C)C)ncnc43)O[C@@H]2CO)cc1 [PUROMYCIN] | – | – | Kd [1]: 480 µM
2 | H-AQVANHQ-NH2 | – | 9.9 µM | Kd(app) [2]: inactive
3 | H-NQAANHQ-NH2 | – | – | Kd ([4]; read-out: Kd(app)): 5 µM; Kd [5]: 1 µM; Activity [6]: Active; Selectivity ratio [7]: 23
4 | H-NQRANHQ-NH2 | – | – | Kd [8]: 6 µM; Kd(app) [9]: inactive; Activity [4]: Active; Activity [6]: Active
5 | H-NQVAAHQ-NH2 | – | 14.3 µM | Kd(app) [2]: inactive
6 | H-NQVAHAQ-NH2 | – | – | Activity [10]: inactive
7 | H-NQVANAH-NH2 | > 20 µM | – | –
8 | H-NQVANAQ-NH2 | – | – | Kd(app) [2]: inactive; Kd(app) [3]: inactive
9 | H-NQVANHA-NH2 | 13.4 µM | 47.5 µM | –
10 | H-NQVANHR-NH2 | – | 20.5 µM | Kd [11]: 31.8 µM
11 | H-NQVANRQ-NH2 | 4.5 µM | 14.4 µM | –
12 | H-NQVARHQ-NH2 | – | 16.5 µM | Kd(app) [2]: inactive
13 | H-NQVRNHQ-NH2 | > 20 µM | 21.7 µM | –
14 | H-NRVANHQ-NH2 | > 40 µM | 35.5 µM | –

The next lines start with results.

Row | Kd [2] | Molecule | Kd [3] | other results
15 | 4.6 µM | H-NAVANHQ-NH2 | 52.8 µM | –
16 | 16 µM | H-NQVAHHQ-NH2 | – | –
17 | > 20 µM | H-NQVANHH-NH2 | – | –
18 | 4.6 µM | H-NQVANHQ-NH2 | 22.9 µM | Kd [11]: 3.1 µM
19 | 2.1 µM | H-RQVANHQ-NH2 | 10 µM | –
